Results on 2 compounds are retold here after US20250145600A1, “2-((4-((S)-2-(4-CHLORO-2-FLUOROPHENYL)-2-METHYLBENZO[D][1,3]DIOXOL-4-YL)PIPERIDIN-1-YL)METHYL)-1-(((S)-OXETAN-2-YL)METHYL)-1H-IMIDAZOLE DERIVATIVES AS ACTIVATORS OF THE GLP1 RECEPTOR FOR THE TREATMENT OF OBESITY” (Novartis AG, priority 2022, published 2025).

In general, Emax refers to the maximal effect, on the per cent scale that the assay sets. In general, pEC50 refers to the negative decadic logarithm of the EC50, by convention in mol/L. High values mean a low EC50, low ones a high EC50.

The target in the assay is human GLP1R (hGLP1R) (Homo sapiens, UniProt P43220). Kind of assay: Human GLP1R cAMP agonist assay (GloSensor cAMP Assay). Type of assay: cell-based. Conditions: HEK293-SNAP-hGLP1R-GloSensor cells; for Emax: cAMP activity as percent of GLP1 (7-36) EC100 control; for pEC50: intracellular cAMP, 12 min at rt. As to the method: Compounds of formula (I) according to the invention were tested in the following cellular assays that measure the intracellular cAMP concentration, beta-arrestin recruitment and receptor internalization. The cAMP is generated by the activation of GLP1R. The extent to which the GLP1R is internalized into the cell and away from the plasma membrane following activation is also shown in Table 2. EC50 for each assay is defined as the concentration of the compound that leads to half of the maximum response (after baseline correction). Emax is defined as the maximum response observed for the test compound, normalized to the maximum response observed for the endogenous ligand (GLP1(7-36)) to GLP1R.
Human GLP1R cAMP Agonist Assay
The agonist activity of compounds was determined using the GloSensor™ cAMP Assay (Promega Corp.), which measures changes in the intracellular concentration of cAMP after ligand activation of GPCRs. The assay uses a biosensor encoded by pGloSensor™-22F cAMP plasmid (Promega, cat #E2301) with cAMP binding domains fused to a mutant form of Photinus pyralis luciferase. Binding to cAMP causes conformational changes that promote large increases in light output, which can be measured by a luminescence detector. HEK293-SNAP-hGLP1R-GloSensor cells stably overexpressing the human GLP1 receptor (hGLP1R) and pGloSensor™-22F were seeded in white 384-well poly-D-Lysine coated plates (Greiner Bio One, cat #781945) in CO2-independent media (Gibco cat #18045-088 with 1.0% FBS, 2 mM L-glutamine, penicillin and streptomycin) and incubated overnight at 37° C., 5% CO2 with humidity. The assay was started the following morning by adding an equal volume of CO2-independent media containing 4% v/v dilution of the GloSensor substrate (Promega, cat #E1291) to all wells. The cell plate was incubated at rt for 2 h in the dark. The Biomek 7 (Beckman Coulter) instrument was used for the liquid handling steps. To generate duplicate dose response curves, 3-fold serially diluted compounds were added in to the cell assay plate to a final volume of 60 μL with final concentrations ranging from 30 μM through 0.06 μM in CO2-independent media containing 0.1% BSA, 0.5 mM IBMX and 0.4% DMSO. In the same plate and assay buffer as the tested compounds, were EC100 control wells containing GLP1 (7-36) peptide (Bachem, cat #H-6795) at a final concentration of 2 nM and also EC0 control wells containing no peptide. This plate was incubated at rt in the dark for 12 min after adding the compounds to the cells. Luminescence was then measured with an Envision 2104 Multilabel reader with “TRF Light Unit, 337 nm” (PerkinElmer) using the Ultra-Sensitive protocol setting “384-well US luminescence detector” with the 384-well luminescence aperture, 0.1 seconds per well. cAMP activity was calculated as percent of the GLP1 (7-36) EC100 control wells: [(sample signal−mean EC0 signal)/(mean EC100 of GLP1 (7-36) signal−mean EC0 signal)}*100. Curve fitting for EC50 determinations was performed in the Helios module of the software package DAVID. The 4-parameter logistic model, Hill slope was used: y=Ainf+(A0−Ainf)/(1+(x/AC50)^Hill Slope) where y is the functional response; x is the compound concentration; A0 is the minimum value (at 0 dose); Ainf is the maximum value (at infinite dose); AC50 corresponds to the point of inflection (i.e. the point on the sigmoid shaped curve halfway between A0 and Ainf). The EC50 value was represented by the AC50 value calculated from Helios in μM. Emax is the maximal activity detected within the concentration range, derived from the fitted curve.
327 μL of Opti-MEM medium (Gibco, cat #31985-062) were mixed with 12 μL of FuGENE® HD (Promega, cat #E2311) and incubated at rt for 5 min. Then 8.2 μL (4 μg, 0.485 μg/μL solution) of pSNAP-hGLP1R plasmid (Cisbio, cat #PSNAP-GLP1) encoding human GLP1R (NCBI Reference Sequence: NM_002062.3) fused with Cisbio's SNAP tag was added in to the Fugene HD/Opti-MEM mix, and incubated at rt for 20 min. […]

pEC50: −log10 of the molar value.

Sequence of human GLP1R (hGLP1R) (P43220 24-463): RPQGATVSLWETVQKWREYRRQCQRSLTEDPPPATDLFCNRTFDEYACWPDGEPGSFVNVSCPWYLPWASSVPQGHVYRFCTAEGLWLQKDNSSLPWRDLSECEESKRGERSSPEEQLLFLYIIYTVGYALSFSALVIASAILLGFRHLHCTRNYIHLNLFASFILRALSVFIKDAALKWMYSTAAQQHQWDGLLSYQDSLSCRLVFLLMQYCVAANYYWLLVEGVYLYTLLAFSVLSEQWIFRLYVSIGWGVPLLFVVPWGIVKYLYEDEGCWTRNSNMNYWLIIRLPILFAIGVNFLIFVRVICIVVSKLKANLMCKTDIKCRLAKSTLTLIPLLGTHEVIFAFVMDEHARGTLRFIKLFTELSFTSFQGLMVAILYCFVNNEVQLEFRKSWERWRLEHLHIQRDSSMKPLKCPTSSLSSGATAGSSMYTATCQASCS

In turn, `Cc1nc(CN2CCC(c3cccc4c3O[C@@](C)(c3ccc(Cl)cc3F)O4)CC2)n(C[C@@H]2CCO2)c1-c1cc(C(=O)O)n(C)n1` [Compound C-21, 3-(2-((4-((S)-2-(4-chloro-2-fluorophenyl)-2-methylbenzo[d][1,3]dioxol-4-yl)piperidin-1-yl)methyl)-4-methyl-1-(((S)-oxetan-2-yl)methyl)-1H-imidazol-5-yl)-1-methyl-1H-pyrazole-5-carboxylic acid] showed a maximal response (Emax) of 117% and a negative logarithm of the EC50 (pEC50) of 9.08.

`Cc1c(-c2ccc(C(=O)O)o2)nc(CN2CCC(c3cccc4c3O[C@@](C)(c3ccc(Cl)cc3F)O4)CC2)n1C[C@@H]1CCO1` [Compound C-24, 5-(2-((4-((S)-2-(4-chloro-2-fluorophenyl)-2-methylbenzo[d][1,3]dioxol-4-yl)piperidin-1-yl)methyl)-5-methyl-1-(((S)-oxetan-2-yl)methyl)-1H-imidazol-4-yl)furan-2-carboxylic acid] had an Emax of 113% and a pEC50 of 9.99.
